The record followed here is patent US7384920B2, “Use of stilbene compounds in the manufacture of medicament for the prevention and treatment of diabetes or retrovirus-associated diseases” (priority 2001, dated 2008).

Where “and” joins values, the source holds several entries; their conditions need not be identical. Equal entries are not always repeated.

The test system of series [1] is alloxan induced diabetic mice. Briefly: Hypoglycemic effect on glucose level of alloxan induced diabetic mice. It is filed as in vivo. Conditions: for Postdosing glucose level / Predosing glucose level: alloxan diabetic KM male mice; for Predosing glucose level: before dosing. As for the experimental part: The metformin or miglucan were used as positive control drugs. And the hypoglycemic effects were evaluated. Hypoglycemic effect of stilbene derivatives on glucose level of alloxan induced diabetic mice.
KM strain male mice which have been fasted for 5-8 hours are used and be injected intravenously of alloxan 80mg/Kg, and 72 hours later, selected those with glucose level>11.0 mmol/L as the diabetic model mice for drug evaluation. Compounds were administered pos for 12 days.

Series [2] deals with HBeAg expression. The series is described as follows: Inhibition of HBeAg expression in 2.2.15 cells (ELISA of supernatant). It is filed as cell-based. The conditions noted are these: 2.2.15 cells 10^5/ml. The protocol:
Experimental method: use 10% DMEM(with G418 380 μg/ml)to cultivate 2.2.15 cells,
Add 1.5ml of 10^5 cell/ml to 24 well plate for cultivation, change the new cultivate fluid next day and add different amount of compound to it, cultivate each concentration of compound to 3 wells, then collect and freeze 200 μl of supernatant of 2.2.15 cell culture at day 2,4,6 cultivation. Measure HBeAg value of the supernatant by ELISA.
E3 are the same, OD optical density, IR inhibition rate, ctr control IR=[Ctr(P/N)−Agent(P/N)]/[Ctr(P/N)−2.1]
Background: An ELISA detects its analyte on a solid surface through an enzyme-linked reagent.

Series [3] has as its system mice. Briefly: in vivo. The class given is in vivo.
Series [4] concerns normal rats. The series is described as follows: Effect on glucose tolerance curve of normal rats. It is filed as in vivo. Set-up: Auc (area under glucose tolerance curve): unit not given beside the values. Conditions: for Glucose (fasted): fasted 8 hours; for Glucose after medication 0′: 0 h after ip glucose 2 g/Kg; for Glucose after medication 30′: 30 min after ip glucose 2 g/Kg; for Glucose after medication 60′: 60 min after ip glucose 2 g/Kg; for Glucose after medication 120′: 120 min after ip glucose 2 g/Kg; for Auc (area under glucose tolerance curve): ip glucose 2 g/Kg, 0-2 hours. The protocol:
In these experiments, stilbene derivatives in examples 1-5 are administrated respectively to KM male mice or Wistar male rats pos for 12 days , then test animals were fasted for 8 hours, examined glucose values, and administrated the test compound. One hour later, administered ip of glucose 2 g/Kg (1.11 mol/L glucose solution). Determining the glucose values at 0, ½, 1, 2 hours after glucose injection and calculating the area under this glucose tolerance curve.

Series [5] in a line: Solubility in organic solvents (identification). The class given is physicochemical. The conditions noted are these: organic solvents as named in the value.
Series [6] can be described thus: in vivo. It is filed as in vivo. Conditions: mouse, in vivo, pos.
[7] abbreviates: normal rats N=6, 75 mg/Kg pos 12 days.
[8] abbreviates: normal rats N=6, 150 mg/Kg pos 12 days.

Regarding “3,3′,4′,5-quadrahydroxystilbene-4′-O-β-D-glucopyranoside [Compound E1]”, the Postdosing glucose level was 21.10 ± 5.73 mmol/L in series [1] (250 mg/kg pos for 12 days), 16.39 ± 5.32 mmol/L in series [1] (500 mg/kg pos for 12 days) and 16.54 ± 5.48 mmol/L in series [1] (1000 mg/kg pos for 12 days). Also, the Predosing glucose level in series [1] (group 250 mg/kg) is recorded as 22.49 ± 4.63 mmol/L; in series [1] (group 500 mg/kg), 22.76 ± 3.17 mmol/L; in series [1] (group 1000 mg/kg), 22.65 ± 3.55 mmol/L. Further, the “IR (%) inhibition rate of HBeAg” value in series [2] (10 μg/ml, Day 2) is on record as 57.75%; in series [2] (10 μg/ml, Day 4), 32.68%; in series [2] (10 μg/ml, Day 6), 51.57%; in series [2] (20 μg/ml, Day 2) it was 63.83%; in series [2] (20 μg/ml, Day 4), −62.75%; in series [2] (20 μg/ml, Day 6), 48.82%. Moreover, the “OD (HBeAg ELISA)” value in series [2] (10 μg/ml, Day 2) was 0.244; in series [2] (10 μg/ml, Day 4) it was 0.208; in series [2] (10 μg/ml, Day 6), 0.228; in series [2] (20 μg/ml, Day 2), 0.224; in series [2] (20 μg/ml, Day 4), 0.354; in series [2] (20 μg/ml, Day 6), 0.235.
On to `COc1cc(C=Cc2cc(O)cc(O[C@@H]3O[C@H](CO)[C@@H](O)[C@H](O)[C@H]3O)c2)ccc1O` [Compound E2, 3,4′,5-trihydroxy-3′-methyloxy stilbene-3-O-β-D glucoside], for which the Postdosing glucose level turned out to be 22.61 ± 6.07 mmol/L in series [1] (250 mg/kg pos for 12 days), 28.96 ± 8.21 mmol/L in series [1] (500 mg/kg pos for 12 days) and 24.64 ± 2.49 mmol/L in series [1] (1000 mg/kg pos for 12 days). Further, the Predosing glucose level in series [1] (group 250 mg/kg) was determined as 21.43 ± 5.04 mmol/L; in series [1] (group 500 mg/kg) it was 22.98 ± 5.94 mmol/L; in series [1] (group 1000 mg/kg) it was 21.38 ± 5.75 mmol/L. Also, the “IR (%) inhibition rate of HBeAg” value in series [2] (10 μg/ml, Day 2) is on record as 71.43%; in series [2] (10 μg/ml, Day 4), 45.75%; in series [2] (10 μg/ml, Day 6) it was 56.69%; in series [2] (20 μg/ml, Day 2), 40.43%; in series [2] (20 μg/ml, Day 4) it was 9.15%; in series [2] (20 μg/ml, Day 6) it was 4.72%. For the same compound, the “OD (HBeAg ELISA)” value worked out at 0.199 in series [2] (10 μg/ml, Day 2); 0.188 in series [2] (10 μg/ml, Day 4); 0.251 in series [2] (10 μg/ml, Day 6); 0.301 in series [2] (20 μg/ml, Day 2); 0.244 in series [2] (20 μg/ml, Day 4); 0.347 in series [2] (20 μg/ml, Day 6). In addition, the MTD is above 16872 mg/kg in series [3] (mice ♀, pos) and above 18301 mg/kg in series [3] (mice ♂, pos). The “Toxicity (in words)” value in series [3] (mice, pos, summary of Table 3) is on record as “very low”.
In the case of `COc1ccc(C=Cc2cc(O)cc(O[C@@H]3O[C@H](CO)[C@@H](O)[C@H](O)[C@H]3O)c2)cc1` [Compound E3, 3,5-dihydroxy-4′-methyloxy stilbene-3-O-β-O-D glucoside], the “IR (%) inhibition rate of HBeAg” value in series [2] (10 μg/ml, Day 2) stood at 72.95%; in series [2] (10 μg/ml, Day 4), 39.87%; in series [2] (10 μg/ml, Day 6), 71.65%; in series [2] (20 μg/ml, Day 2) it was 51.37%; in series [2] (20 μg/ml, Day 4) it was 1.31%; in series [2] (20 μg/ml, Day 6), 48.43%. Besides, the “OD (HBeAg ELISA)” value is reported as 0.194 in series [2] (10 μg/ml, Day 2); 0.197 in series [2] (10 μg/ml, Day 4); 0.177 in series [2] (10 μg/ml, Day 6); 0.265 in series [2] (20 μg/ml, Day 2); 0.256 in series [2] (20 μg/ml, Day 4); 0.236 in series [2] (20 μg/ml, Day 6). Further, the MTD is above 11200 mg/kg in series [3] (mice ♀, pos) and above 11000 mg/kg in series [3] (mice ♂, pos). Also, the “Toxicity (in words)” value in series [3] (mice, pos, summary of Table 3) is “very low”.
In turn, `OC[C@H]1OC(Oc2cc(O)cc(C=Cc3ccc(O)cc3)c2)[C@H](O)[C@@H](O)[C@@H]1O` (some centres unmarked) [Compound E5] registered a Postdosing glucose level in series [1] (75 mg/kg pos for 12 days) of 21.79 ± 9.39 mmol/L. In addition, in series [1] (150 mg/kg pos for 12 days), the Postdosing glucose level is listed as 21.05 ± 4.63 mmol/L. Besides, the Predosing glucose level in series [1] (group 75 mg/kg) came out at 17.46 ± 5.86 mmol/L. Also, the Predosing glucose level in series [1] (group 150 mg/kg) is given as 17.92 ± 5.35 mmol/L. In addition, the “Glucose (fasted)” value in series [4] (setting [7]) was 4.6 ± 0.5 mmol/L. Moreover, in series [4] (normal rats N=6, 75 mg/Kg), the “Glucose after medication 0′” value is on record as 4.9 ± 0.7 mmol/L, the “Glucose after medication 30′” value was 12.0 ± 1.5 mmol/L, the “Glucose after medication 60′” value is on record as 7.4 ± 0.8 mmol/L and the “Glucose after medication 120′” value was 6.7 ± 0.7 mmol/L. Moreover, in series [4] (normal rats N=6, 75 mg/Kg), the “Auc (area under glucose tolerance curve)” value was 966.8 ± 71.6. The “Glucose (fasted)” value in series [4] (setting [8]) was determined as 4.7 ± 0.8 mmol/L. In series [4] (normal rats N=6, 150 mg/Kg), the “Glucose after medication 0′” value amounted to 4.3 ± 0.9 mmol/L, the “Glucose after medication 30′” value turned out to be 10.2 ± 1.5 mmol/L, the “Glucose after medication 60′” value is on record as 6.3 ± 1.1 mmol/L and the “Glucose after medication 120′” value is recorded as 5.7 ± 1.1 mmol/L. Moreover, the “Auc (area under glucose tolerance curve)” value in series [4] (normal rats N=6, 150 mg/Kg) is recorded as 836.3 ± 112.1. In series [3] (mouse, in vivo), the MTD is above 10000 mg/kg and the “Toxicity (in words)” value was “very low”. Also, in series [5], the “Solubility (in words)” value is “easily soluble in acetone”.
Regarding `Oc1ccc(/C=C/c2cc(O)cc(O)c2)cc1` [Compound E], the Postdosing glucose level in series [1] (75 mg/kg pos for 12 days) was determined as 20.01 ± 7.1 mmol/L; in series [1] (150 mg/kg pos for 12 days), 18.36 ± 6.25 mmol/L. Moreover, the Predosing glucose level in series [1] (group 75 mg/kg) turned out to be 17.27 ± 4.60 mmol/L; in series [1] (group 150 mg/kg), 17.87 ± 4.86 mmol/L. Besides, the “Glucose (fasted)” value in series [4] (setting [7]) is 5.3 ± 0.9 mmol/L; in series [4] (setting [8]) it was 5.8 ± 0.6 mmol/L. Moreover, the “Glucose after medication 0′” value came to 4.9 ± 0.7 mmol/L in series [4] (normal rats N=6, 75 mg/Kg) and 4.2 ± 0.4 mmol/L in series [4] (normal rats N=6, 150 mg/Kg). The “Glucose after medication 30′” value in series [4] (normal rats N=6, 75 mg/Kg) is 12.1 ± 2.3 mmol/L; in series [4] (normal rats N=6, 150 mg/Kg) it was 9.5 ± 2.1 mmol/L. Further, the “Glucose after medication 60′” value stood at 7.5 ± 0.8 mmol/L in series [4] (normal rats N=6, 75 mg/Kg) and 6.1 ± 1.2 mmol/L in series [4] (normal rats N=6, 150 mg/Kg). For the same compound, the “Glucose after medication 120′” value in series [4] (normal rats N=6, 75 mg/Kg) was found to be 6.2 ± 0.9 mmol/L; in series [4] (normal rats N=6, 150 mg/Kg), 4.7 ± 0.7 mmol/L. The “Auc (area under glucose tolerance curve)” value was 961.1 ± 115.9 in series [4] (normal rats N=6, 75 mg/Kg) and 760.2 ± 119.6 in series [4] (normal rats N=6, 150 mg/Kg). Besides, the MTD in series [6] (female, mice ♀) was above 6100 mg/kg; in series [6] (male, mice ♂) it was above 6000 mg/kg. Moreover, the “Toxicity (in words)” value in series [3] (mouse, in vivo) is on record as “very low”. Also, the “Solubility (in words)” value in series [5] is “easily soluble in methyl alcohol, ethyl alcohol and acetone”.
As to `CN(C)C(=N)N=C(N)N` [Metformin, reference compound], the Postdosing glucose level in series [1] (500 mg/kg pos for 12 days, 500 mg/kg) was 17.49 ± 5.33 mmol/L and 17.64 ± 1.00 mmol/L and 15.16 ± 8.53 mmol/L. The Predosing glucose level in series [1] (group 500 mg/kg) was 22.81 ± 4.89 mmol/L and 21.15 ± 3.85 mmol/L and 17.10 ± 4.84 mmol/L. For the same compound, the “Hypoglycemic effect (in words)” value in series [1] (alloxan induced diabetic mice, summary of Table 1) is “effective”.
`COc1ccc(Cl)cc1C(=O)NCCc1ccc(S(=O)(=O)NC(=O)NC2CCCCC2)cc1` [Miglucan, reference compound]: in series [4] (normal rats N=6, 100 mg/Kg), the “Glucose after medication 0′” value is 2.7 ± 0.8 mmol/L and 3.4 ± 0.4 mmol/L; the “Glucose after medication 30′” value is 11.5 ± 0.6 mmol/L and 8.7 ± 3.5 mmol/L; the “Glucose after medication 60′” value was 7.8 ± 6.2 mmol/L and 5.3 ± 2.1 mmol/L; the “Glucose after medication 120′” value was 4.1 ± 1.7 mmol/L and 3.8 ± 1.4 mmol/L. Moreover, in series [4] (normal rats N=6, 100 mg/Kg), the “Auc (area under glucose tolerance curve)” value is 883.1 ± 43.5 and 663.8 ± 220.2.
